From patent publication US20050208582A1, “Pyrazole compounds and pharmaceutical compositions comprising the compound” (priority 2002, published 2005)
pIC50: −log10 of the molar value. Where two headings read alike, the source gives them in different places.

Experiments:
Human JNK 3 = target: T1, Human JNK 3 (Homo sapiens, UniProt P53779); test: Measurement of JNK 3 inhibition (GST-JNK3, GST-c-Jun substrate, [γ-33P]ATP, SPA beads); assay type: biochemical
T1 construct: made in house; host or cells: Escherichia coli
Description: Measurement of JNK 3 Inhibition
Human JNK 3 was expressed as a fusion protein (GST-JNK 3) with glutathione S-transferase (GST) in Escherichia coli and was purified using glutathione Sepharose 4B beads. The amino acid sequence 1-169 of c-Jun was prepared as a fusion protein (GST-c-Jun) with GST in Escherichia coli, was purified using glutathione Sepharose 4B beads and was used as a substrate. A test compound was solved in 100% dimethyl sulfoxide into 10 mM and was then further diluted with 10% aqueous dimethyl sulfoxide solution to yield a dilution series. In 96-well OPTI plate (available from ParkinElmer Life Sciences), 20 μl of diluted compound, 30 μl of substrate solution (1.2 μg GST-c-Jun, 0.2 μCi [γ-^33P]ATP, 25 mM HEPES pH=7.5, 10 mM MgAcetate, 3.33 μM ATP) and 50 μl of enzyme solution (0.04 μg GST-JNK3, 25 mM HEPES pH=7.5, 10 mM Mg Acetate) were mixed per 1-well, made up to 100 μl, and allowed to react for 30 minutes. After terminating the reaction by adding 100 μl of a reaction terminator (80 mM ATP, 50 mg/ml glutathione SPA beads (available from Amersham Pharmacia Biotech)), the reaction mixture was shaken for 30 minutes. The mixture was centrifuged at room temperature at 1000×g for 5 minutes, and the emission intensity thereof was determined on a TopCount™ illuminator (available from available from PerkinElmer Life Sciences). The activity is expressed by the 50% inhibitory concentration on the enzymatic activity of JNK, i.e., IC50 (nM).

ERK2 = target: T2, ERK2 (Homo sapiens, UniProt P28482); test: Measurement of ERK2 inhibition (ELISA, myelin basic protein substrate); assay type: biochemical; conditions: concentration at which ERK2 enzyme activity was inhibited to 50%; room temperature, 30 minutes; read-out: ERK2 inhibitory activity
T2 construct: purchased Upstate Biotech
Description: Measurement of ERK2 Inhibition
A plate for ELISA was coated for 1 hour with 1 μg/well myelin basic protein (available from Upstate Biotech) serving as a reaction substrate. Following washing operation with PBS-Tween, blocking with 1% BSA-PBS was conducted for 3 hours. After washing with PBS-Tween, 25 μl of a reaction solution (20 mM MOPS, 25 mM β-glycerphosphoric acid, 5 mM EGTA, 1 mM orthovanadic acid, 1 mM dithiothreitol), 5 μl of a dilution sample of compound from dilution series which was prepared using 1% DMSO-1% BSA solution, 10 μl of 0.5 μg/ml ERK2 (available from Upstate Bioech), 10 μl of 500 μM ATP were added to made up to 50 μl, and allowed to react at room temperature for 30 minutes. 100 μl of 200 mM EDTA (pH 8.0) was added to stop the reaction, which was then washed with PBS-Tween. This was then added with mouse anti-phospho-myelin basic protein antibody (available from Usptate Biotech), allowed to react for 1 hour, and washed with PBS-Tween, thereafter added with anti-mouse IgG antibody combined with horseradish peroxidase (available from ICN), allowed to react for 1 hour, and washed with PBS-Tween. Subsequently 100 μl of a TMB peroxidase substrate solution (available from KPL) was added, coloring reaction was allowed for 10 minutes, and then measurement at OD 450 nm was conducted. […]

[1] = 50% inhibitory concentration on the enzymatic activity of JNK, 3.33 μM ATP in substrate solution, 30 minutes
[2] = selectivity table, compared with ERK2, read-out: JNK3 inhibitory activity

T1 sequence (P53779 whole entry): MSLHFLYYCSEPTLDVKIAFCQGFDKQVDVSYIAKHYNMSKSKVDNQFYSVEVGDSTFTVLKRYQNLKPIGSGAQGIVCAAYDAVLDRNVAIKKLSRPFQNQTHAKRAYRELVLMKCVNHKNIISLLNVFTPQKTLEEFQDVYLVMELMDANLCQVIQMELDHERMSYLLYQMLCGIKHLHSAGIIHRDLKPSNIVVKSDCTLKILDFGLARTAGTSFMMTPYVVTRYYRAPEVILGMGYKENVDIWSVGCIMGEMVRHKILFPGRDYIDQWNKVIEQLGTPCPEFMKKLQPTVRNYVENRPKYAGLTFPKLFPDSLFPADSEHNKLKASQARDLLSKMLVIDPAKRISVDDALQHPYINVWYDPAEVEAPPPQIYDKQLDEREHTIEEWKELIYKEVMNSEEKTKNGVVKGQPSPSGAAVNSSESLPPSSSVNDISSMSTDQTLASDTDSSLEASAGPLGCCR
T2 sequence (P28482 whole entry, species assumed): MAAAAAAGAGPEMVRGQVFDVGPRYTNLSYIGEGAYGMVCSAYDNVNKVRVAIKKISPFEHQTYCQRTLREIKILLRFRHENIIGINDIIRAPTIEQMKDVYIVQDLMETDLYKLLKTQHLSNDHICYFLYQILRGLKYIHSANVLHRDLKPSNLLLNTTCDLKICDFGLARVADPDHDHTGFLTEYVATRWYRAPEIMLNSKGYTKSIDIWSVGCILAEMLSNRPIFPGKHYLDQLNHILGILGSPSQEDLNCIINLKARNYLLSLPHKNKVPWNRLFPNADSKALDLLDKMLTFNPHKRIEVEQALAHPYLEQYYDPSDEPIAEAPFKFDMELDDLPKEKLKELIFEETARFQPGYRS

Compound | pIC50 (Human JNK 3; [1]) | pIC50 (ERK2) | pIC50 (Human JNK 3; [2])
O=C(Nc1ccc2[nH]nc(/C=C/c3ccc(F)cc3)c2n1)c1ccco1 [Example 495, Furan-2-carboxylic Acid {3-[(E)-2-(4-fluorophenyl)-vinyl]-1H-pyrazolo[4,3-b]pyridin-5-yl}-amide] | 6.93 | – | –
O=C(NCc1ccco1)c1cc2c(/C=C/c3cccc(F)c3)n[nH]c2cc1F [Example 103, 6-Fluoro-3-[(E)-2-(3-fluorophenyl)-vinyl]-1H-indazole-5-carboxylic Acid (furan-2-ylmethyl)-amide] | – | 4.66 | 7.26
CC(C)[C@@H](CO)NC(=O)c1cc(F)c2[nH]nc(/C=C/c3cccnc3)c2c1 [Example 128, 7-Fluoro-3-[(E)-2-(pyridin-3-yl)-vinyl]-1H-indazole-5-carboxylic acid [(1S)-1-hydroxymethyl-2-methylpropyl]-amide] | 6.93 | – | –
O=C(NC1CC1)c1ccc2[nH]nc(-c3cccc(F)c3)c2n1 [Example 56, 3-(3-Fluorophenyl)-1H-pyrazolo[4,3-b]pyridine-5-carboxylic Acid Cyclopropylamide] | 6.63 | – | –
O=C(NCc1ccco1)c1ccc2[nH]nc(/C=C/c3cccc(F)c3)c2c1 [Reference example 1, 3-[(E)-2-(3-fluorophenyl)-vinyl]-1H-indazole-5-carboxylic acid (furan-2-ylmethyl)-amide, reference compound] | – | 6.15 | 7.04
CCCNC(=O)Nc1cc2c(/C=C/c3ccc(F)cc3)n[nH]c2cc1F [Example 1056, 1-{6-Fluoro-3-[(E)-2-(4-fluorophenyl)-vinyl]-1H-indazol-5-yl}-3-propyl-urea] | 6.88 | – | –
COc1c(-c2nc(C)n[nH]2)ccc2[nH]nc(/C=C/c3cccc(F)c3)c12 [Example 392, 3-[(E)-2-(3-Fluorophenyl)-vinyl]-4-methoxy-5-(5-methyl-2H-[1,2,4]triazol-3-yl)-1H-indazole] | 6.39 | – | –
NC(=O)CCOc1c(C(=O)N[C@H](CO)c2ccccc2)ccc2[nH]nc(/C=C/c3ccc(F)cc3)c12 [Example 790, 4-(2-Carbamoylethoxy)-3-[(E)-2-(4-fluorophenyl)-vinyl]-1H-indazole-5-carboxylic Acid [(1S)-2-hydroxy-1-phenyl-ethyl]-amide] | 7.15 | – | –
O=C(NCc1ccco1)c1cnc2[nH]nc(-c3ccc4ccccc4c3)c2c1 [Example 472, 3-(Naphthalen-2-yl)-1H-pyrazolo[3,4-b]pyridine-5-carboxylic Acid (furan-2-ylmethyl)-amide] | 6.30 | – | –
O=C(Nc1cc(F)c2[nH]nc(/C=C/c3cccnc3)c2c1)c1ccco1 [Example 136, Furan-2-carboxylic Acid [7-fluoro-3-(2-pyridin-3-yl-vinyl)-1H-indazol-5-yl]-amide] | 6.78 | – | –
NCc1nnc(-c2cc(F)c3[nH]nc(/C=C/c4ccc(F)cc4)c3c2)[nH]1 [Example 573, C-(5-{7-Fluoro-3-[(E)-2-(4-fluorophenyl)-vinyl]-1H-indazol-5-yl}-4H-[1,2,4]triazol-3-yl)-methylamine] | 7.18 | – | –
C[C@H](NC(=O)c1ccc2[nH]nc(/C=C/c3ccc(F)cc3)c2c1OCCCO)C(N)=O [Example 786, 3-[(E)-2-(4-Fluorophenyl)-vinyl]-4-(3-hydroxypropoxy)-1H-indazole-5-carboxylic Acid [(1S)-1-carbamoyl-ethyl]-amide] | 6.76 | – | –
O=C(NCc1ccco1)c1cc2c(/C=C/c3cccc(F)c3)n[nH]c2cn1 [Example 466] | 6.24 | – | –
COc1c(C(=O)NCc2ncco2)ccc2[nH]nc(/C=C/c3ccc(F)cc3F)c12 [Example 992, 3-[(E)-2-(2,4-Difluorophenyl)-vinyl]-4-methoxy-1H-indazole-5-carboxylic Acid (oxazol-2-ylmethyl)amide] | 6.97 | – | –
O=C(NC1CC1)c1ccc2[nH]nc(/C=C/c3ccc(F)cc3)c2c1OCCO [Example 353, 3-[(E)-2-(4-Fluorophenyl)-vinyl]-4-(2-hydroxyethoxy)-1H-indazole-5-carboxylic Acid Cyclopropylamide] | 6.83 | – | –
CNCc1nnc(-c2cc3c(/C=C/c4ccc(F)cc4)n[nH]c3cc2F)[nH]1 [Example 571, (5-{6-Fluoro-3-[(E)-2-(4-fluorophenyl)-vinyl]-1H-indazol-5-yl}-4H-[1,2,4]triazol-3-ylmethyl)-methyl-amine] | 7.20 | – | –
COc1cc(/C=C/c2n[nH]c3cc(F)c(NC(=O)CC4CC4)cc23)ccc1F [Example 1003, 2-Cyclopropyl-N-{6-fluoro-3-[(E)-2-(4-fluoro-3-methoxyphenyl)-vinyl]-1H-indazol-5-yl}acetamide] | 6.91 | – | –
O=C(NCc1ccco1)c1ccc2[nH]nc(/C=C/c3cccs3)c2c1F [Example 213, 4-Fluoro-3-[(E)-2-(thiophen-2-yl)-vinyl]-1H-indazole-5-carboxylic Acid (furan-2-ylmethyl)-amide] | 6.93 | – | –
O=C(NCc1cccnc1)c1cc2c(/C=C/c3cccc(F)c3)n[nH]c2cc1F [Example 106, 6-Fluoro-3-[(E)-2-(3-fluorophenyl)-vinyl]-1H-indazole-5-carboxylic Acid (pyridine-3-ylmethyl)-amide] | 6.71 | – | –
O=C(NC(CO)c1ccccc1)c1cc2c(-c3ccc4ccccc4c3)n[nH]c2s1 (centres unmarked) [Example 522, 3-(Naphthalen-2-yl)-1H-thieno[2,3-c]pyrazol-5-carboxylic Acid (2-hydroxy-1-phenylethyl)amide] | 6.84 | – | –
Fc1ccc(/C=C/c2n[nH]c3c(F)cc(-c4ncc[nH]4)cc23)cc1 [Example 603, 7-Fluoro-3-[(E)-2-(4-fluorophenyl)-vinyl]-5-(1H-imidazol-2-yl)-1H-indazole] | 6.93 | – | –
